Source: paper PMC6010112, “Resolution of co-eluting isomers of anti-inflammatory drugs conjugated to carbonic anhydrase inhibitors from plasma in liquid chromatography by energy-resolved tandem mass spectrometry” (Journal of Enzyme Inhibition and Medicinal Chemistry, 2018)

Key:
[1] = Stability in rat plasma (enzymatic hydrolysis), LC-MS/MS; format: in vitro ADME, Sprague-Dawley male rats; details: male, Sprague-Dawley, 1 µM analyte, 37 °C, incubation 0-120 min, read-out: T 1/2 Rat plasma
Method: (§1) PBS was prepared by adding 8.01 g L^−1 of NaCl, 0.2 g L^−1 of KCl, 1.78 g L^−1 of Na2HPO4·2H2O, and 0.27 g L^−1 of KH2PO4. Human plasma was collected from healthy volunteer and the rat plasma was collected from Sprague-Dawley male rats; each plasma batch was kept at −80 °C until use.
(§2) The sample was prepared adding 10 µL of spiked solution to 100 µL of tested matrix (PBS or human plasma or rat plasma) in microcentrifuge tubes. The obtained solutions correspond to 1 µM of analyte.
(§3) Each set of samples was incubated in triplicate at four different times, 0, 30, 60, and 120 min at 37 °C. Therefore, the matrix stability profile of each analyte was represented by a batch of 12 samples (4 incubation times ×3 replicates). After the incubation, the samples were added with 300 µL of ISTD solution and centrifuged (room temperature for 5 min at 800 g). The supernatants were transferred in autosampler vials and dried under a gentle stream of nitrogen.
(§4) The dried samples were dissolved in 1.0 mL of 10 mM of formic acid in mQ water:acetonitrile 80:20 solution[28].
(§5) An investigation on the chemical stability of compounds under study in PBS, human and rat plasma was performed for evaluating their susceptibility to spontaneous or enzymatic hydrolysis.
In order to establish the hydrolytic activity of the employed plasma batches, two reference compounds were tested, following the procedure reported in the section ‘Validation of LC-MS/MS methods’: KEE (half-life <2 h) and enalapril (half-life <0.5 h) to verify the human and rat plasma activity, respectively[32]^,[33].
(§6) The stability profiles were obtained by monitoring the variation of analyte concentration at different incubation times in PBS or human or rat plasma samples. Generally, when the substrate concentration was smaller than the Michaelis–Menten constant (KM), the enzymatic degradation rate is described to a first-order kinetics. Therefore, plotting the natural logarithm of the quantitative data versus the incubation time, a linear function can be used and its slope represents the degradation rate constant (k).
(§7) All degradation plots of references and studied compounds were reported in the Supplemental material (SF11–SF26). The half-life of each tested compound was calculated as follows: (4) […]

[2] = Stability in human plasma (enzymatic hydrolysis), LC-MS/MS; format: in vitro ADME; details: 1 µM analyte, 37 °C, incubation 0-120 min; for half-life at 1 µM: male, read-out: T 1/2 Human plasma
Method: as §1, §2
as §3, with “Therefore,” for “Each set of samples was incubated in triplicate at four different times, 0, 30, 60, and 120 min at 37 °C. Therefore,”
as §4, §5, §6

[3] = Chemical stability in phosphate buffer solution (spontaneous hydrolysis), LC-MS/MS; format: physicochemical; details: phosphate buffer solution (PBS), 1 µM analyte, 37 °C, incubation 0-120 min, read-out: T 1/2 PBS
Method: as §2, §3, §4, §5, §6, §7

[4] = design: method as in PMID 28238510, PMID 28113128; details: cited from earlier work
[5] = design: method as in PMID 28238510, PMID 28113128; details: cited from earlier work; remark: listed apart in the source

Compound	half-life at 1 µM [1]	half-life at 1 µM [2]	half-life at 1 µM [3]	T 1/2 Human plasma [2]	half-life (reference compound to verify rat plasma activity) [4]	half-life (reference compound to verify human plasma activity) [5]
CC(C(=O)NCCOc1ccc2oc(=O)ccc2c1)c1ccc(-c2ccccc2)c(F)c1 (stereo not shown) [Compound 6A]	> 4 h	> 4 h	> 4 h			
CC1=C(CC(=O)NCCOc2ccc3oc(=O)ccc3c2)c2cc(F)ccc2/C1=C\c1ccc([S+](C)[O-])cc1 (stereo not shown) [Compound 2A]	> 4 h	> 4 h	> 4 h			
CC(C(=O)NCCOc1ccc2ccc(=O)oc2c1)c1cccc(C(=O)c2ccccc2)c1 (stereo not shown) [Compound 3B]	> 4 h	> 4 h	> 4 h			
COc1ccc2cc(C(C)C(=O)NCCOc3ccc4oc(=O)ccc4c3)ccc2c1 (stereo not shown) [Compound 8A]	> 4 h	> 4 h	> 4 h			
O=C(c1ccccc1)c1ccc2n1CCC2C(=O)NCCOc1ccc2ccc(=O)oc2c1 (stereo not shown) [Compound 7B]	> 4 h	> 4 h	> 4 h			
CC(C(=O)NCCOc1ccc2ccc(=O)oc2c1)c1ccc(-c2ccccc2)c(F)c1 (stereo not shown) [Compound 6B]	> 4 h	> 4 h	> 4 h			
CC(C)Cc1ccc(C(C)C(=O)NCCOc2ccc3ccc(=O)oc3c2)cc1 (stereo not shown) [Compound 4B]	> 4 h	> 4 h	> 4 h			
CCOC(=O)C(C)c1cccc(C(=O)c2ccccc2)c1 (stereo not shown) [KEE, Ketoprofen ethyl ester, reference compound]				1.58 h		< 2 h

Continued, in another order:

half-life at 1 µM [1]	half-life at 1 µM [2]	half-life at 1 µM [3]	T 1/2 Human plasma [2]	Compound	half-life (reference compound to verify rat plasma activity) [4]	half-life (reference compound to verify human plasma activity) [5]
> 4 h	> 4 h	> 4 h		CC(C)Cc1ccc(C(C)C(=O)NCCOc2ccc3oc(=O)ccc3c2)cc1 (stereo not shown) [Compound 4A]		
> 4 h	> 4 h	> 4 h		COc1ccc2c(c1)c(CC(=O)NCCOc1ccc3ccc(=O)oc3c1)c(C)n2C(=O)c1ccc(Cl)cc1 [Compound 1B]		
> 4 h	> 4 h	> 4 h		O=C(Cc1ccccc1Nc1c(Cl)cccc1Cl)NCCOc1ccc2oc(=O)ccc2c1 [Compound 5A]		
> 4 h	> 4 h	> 4 h		O=C(Cc1ccccc1Nc1c(Cl)cccc1Cl)NCCOc1ccc2ccc(=O)oc2c1 [Compound 5B]		
> 4 h	> 4 h	> 4 h		O=C(c1ccccc1)c1ccc2n1CCC2C(=O)NCCOc1ccc2oc(=O)ccc2c1 (stereo not shown) [Compound 7A]		
0.367 h				CCOC(=O)[C@H](CCc1ccccc1)N[C@@H](C)C(=O)N1CCC[C@H]1C(=O)O [Enalapril, enalapril, reference compound]	< 0.5 h	
> 4 h	> 4 h	> 4 h		COc1ccc2c(c1)c(CC(=O)NCCOc1ccc3oc(=O)ccc3c1)c(C)n2C(=O)c1ccc(Cl)cc1 [Compound 1A]		
> 4 h	> 4 h	> 4 h		CC(C(=O)NCCOc1ccc2oc(=O)ccc2c1)c1cccc(C(=O)c2ccccc2)c1 (stereo not shown) [Compound 3A]		
> 4 h	> 4 h	> 4 h		COc1ccc2cc(C(C)C(=O)NCCOc3ccc4ccc(=O)oc4c3)ccc2c1 (stereo not shown) [Compound 8B]		
> 4 h	> 4 h	> 4 h		CC1=C(CC(=O)NCCOc2ccc3ccc(=O)oc3c2)c2cc(F)ccc2/C1=C\c1ccc([S+](C)[O-])cc1 (stereo not shown) [Compound 2B]		
